Reference: ChEMBL document CHEMBL1150407, “High-throughput evaluation of relative cell permeability between peptoids and peptides” (Bioorg Med Chem, 2008)

Target: T1, Glucocorticoid receptor (Homo sapiens, UniProt P04150)
T1 sequence (P04150 whole entry): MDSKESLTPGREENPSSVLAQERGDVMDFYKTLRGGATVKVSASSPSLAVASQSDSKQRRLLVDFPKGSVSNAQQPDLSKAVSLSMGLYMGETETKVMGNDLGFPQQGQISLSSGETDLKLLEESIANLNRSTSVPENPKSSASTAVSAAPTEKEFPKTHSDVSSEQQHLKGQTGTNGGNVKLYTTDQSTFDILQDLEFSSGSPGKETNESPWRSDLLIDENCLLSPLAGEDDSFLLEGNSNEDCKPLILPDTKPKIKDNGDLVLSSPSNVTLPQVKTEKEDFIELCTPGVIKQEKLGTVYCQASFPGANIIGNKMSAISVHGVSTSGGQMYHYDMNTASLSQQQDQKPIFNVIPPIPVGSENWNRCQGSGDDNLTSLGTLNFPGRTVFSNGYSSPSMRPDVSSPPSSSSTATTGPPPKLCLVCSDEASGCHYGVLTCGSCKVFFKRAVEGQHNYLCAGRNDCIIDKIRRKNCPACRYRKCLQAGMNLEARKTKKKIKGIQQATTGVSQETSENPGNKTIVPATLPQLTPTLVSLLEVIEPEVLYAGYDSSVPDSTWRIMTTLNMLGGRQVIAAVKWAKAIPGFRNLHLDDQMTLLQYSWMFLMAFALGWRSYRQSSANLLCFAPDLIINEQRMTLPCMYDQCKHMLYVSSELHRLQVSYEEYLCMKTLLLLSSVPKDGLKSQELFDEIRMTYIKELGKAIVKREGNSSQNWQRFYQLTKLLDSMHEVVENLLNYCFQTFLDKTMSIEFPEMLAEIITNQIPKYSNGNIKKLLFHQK
Test: Inhibition of glucocorticoid receptor

Row | SMILES | IC50
1 | C[C@@H]1C[C@H]2[C@@H]3CCC4=CC(=O)C=C[C@]4(C)[C@@]3(F)[C@@H](O)C[C@]2(C)[C@@]1(O)C(=O)CSCCC(N)=O | 36 nM
2 | C[C@@H]1C[C@H]2[C@@H]3CCC4=CC(=O)C=C[C@]4(C)[C@@]3(F)[C@@H](O)C[C@]2(C)[C@@]1(O)C(N)=O [OXDEX] | 600 nM
